Key:
[1] = biological target: p110 alpha (Homo sapiens (Human), UniProt P42336); experiment: PI3K isoform inhibition assay, p110 alpha (for alpha/delta selectivity); conditions: ratio of biochemical IC50 values
Procedure: (§1) PI3K enzymatic activity was assayed by measuring the amount of product phosphatidylinositol 3,4,5-phosphate (PIP3) formed from substrate 4,5 phosphatidylinositol 4,5-phosphate (PIP2) using a fluorescence polarization displacement assay. The decrease in fluorescence polarization of a fluorescent PIP3 probe is measured as it is displaced from a PIP3-binding protein GRP-1 detector by PI3K-catalyzed product. […] The kinase reactions were initiated by the addition of 40 ng/mL p110α/p85α, 300 ng/mL p110β/p85α, 40 ng/mL p110γ, or 40 ng/mL p110δ/p85α (Upstate Group, Millipore; Dundee, UK), and 10 μM PIP2 (Echelon Biosciences) to the wells. […] After 60 minutes of incubation at room temperature to allow equilibration of labeled and unlabeled PIP3 binding, the parallel and perpendicular components of the fluorescence emissions from each sample were measured at an excitation wavelength of 530 nm and an emission wavelength of 590 nm using an Envision fluorescent plate reader with a rhodamine filter (PerkinElmer Life and Analytical Sciences; Wellesley, Mass.). The assay is capable of detecting 0.1-2.0 μM PIP3 product. The IC50 values were obtained by fitting the dose-dependent inhibition data to a 4-parameter equation using Assay Explorer software (MDL, San Ramon, Calif.).
The same protocol may be used to establish IC50 values for p110α (alpha) PI3K binding.
(§2) The four Class I PI 3-kinases are cloned into baculovirus vectors as follows: […]

[2] = biological target: p110 delta (Homo sapiens (Human), UniProt O00329); experiment: PI3K isoform inhibition assay, p110 delta (fluorescence polarization displacement); assay type: biochemical
Sequence of p110 delta (O00329 whole entry, canonical isoform): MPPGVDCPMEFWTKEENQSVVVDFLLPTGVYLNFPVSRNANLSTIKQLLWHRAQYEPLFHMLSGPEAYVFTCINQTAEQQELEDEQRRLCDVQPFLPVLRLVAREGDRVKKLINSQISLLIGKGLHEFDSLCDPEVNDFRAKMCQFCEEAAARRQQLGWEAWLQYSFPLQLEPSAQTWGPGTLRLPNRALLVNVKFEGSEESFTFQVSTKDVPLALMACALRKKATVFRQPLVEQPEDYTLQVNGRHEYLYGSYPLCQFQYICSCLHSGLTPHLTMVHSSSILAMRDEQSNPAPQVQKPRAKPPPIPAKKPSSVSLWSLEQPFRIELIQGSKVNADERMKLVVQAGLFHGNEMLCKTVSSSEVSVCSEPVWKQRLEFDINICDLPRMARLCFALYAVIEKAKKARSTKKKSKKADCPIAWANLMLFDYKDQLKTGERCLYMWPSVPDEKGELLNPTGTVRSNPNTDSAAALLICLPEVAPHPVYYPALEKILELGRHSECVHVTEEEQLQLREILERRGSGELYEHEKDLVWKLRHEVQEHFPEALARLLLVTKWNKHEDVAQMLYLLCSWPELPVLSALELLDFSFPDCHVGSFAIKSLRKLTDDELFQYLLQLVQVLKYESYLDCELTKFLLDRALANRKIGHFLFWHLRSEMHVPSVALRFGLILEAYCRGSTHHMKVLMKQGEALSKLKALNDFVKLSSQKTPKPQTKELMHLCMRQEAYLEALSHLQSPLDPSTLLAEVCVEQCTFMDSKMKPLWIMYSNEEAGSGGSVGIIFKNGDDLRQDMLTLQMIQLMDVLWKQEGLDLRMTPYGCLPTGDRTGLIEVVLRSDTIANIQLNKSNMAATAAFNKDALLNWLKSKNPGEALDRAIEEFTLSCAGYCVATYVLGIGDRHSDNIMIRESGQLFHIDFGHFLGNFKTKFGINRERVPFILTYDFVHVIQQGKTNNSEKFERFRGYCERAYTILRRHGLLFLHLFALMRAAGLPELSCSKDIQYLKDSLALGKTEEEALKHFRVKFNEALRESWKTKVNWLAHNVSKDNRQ
Sequence of p110 delta (P27986 whole entry partner, canonical isoform): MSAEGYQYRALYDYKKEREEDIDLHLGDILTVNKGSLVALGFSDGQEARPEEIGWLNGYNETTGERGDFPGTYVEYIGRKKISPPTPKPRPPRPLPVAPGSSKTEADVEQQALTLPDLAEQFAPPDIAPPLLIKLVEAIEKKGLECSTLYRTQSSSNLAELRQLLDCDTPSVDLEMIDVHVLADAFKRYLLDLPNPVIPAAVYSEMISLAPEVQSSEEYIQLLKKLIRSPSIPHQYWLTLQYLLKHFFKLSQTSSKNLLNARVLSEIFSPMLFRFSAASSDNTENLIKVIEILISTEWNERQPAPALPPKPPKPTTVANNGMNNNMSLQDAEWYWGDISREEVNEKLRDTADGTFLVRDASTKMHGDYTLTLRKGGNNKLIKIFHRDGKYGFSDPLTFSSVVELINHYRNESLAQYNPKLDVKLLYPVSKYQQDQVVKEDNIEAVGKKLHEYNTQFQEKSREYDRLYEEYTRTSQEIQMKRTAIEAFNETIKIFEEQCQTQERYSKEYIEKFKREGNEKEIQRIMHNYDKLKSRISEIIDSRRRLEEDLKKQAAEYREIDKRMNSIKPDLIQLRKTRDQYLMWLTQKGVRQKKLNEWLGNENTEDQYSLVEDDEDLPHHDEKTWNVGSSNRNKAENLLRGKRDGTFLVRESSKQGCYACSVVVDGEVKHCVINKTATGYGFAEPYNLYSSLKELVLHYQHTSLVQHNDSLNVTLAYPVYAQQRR
Procedure: as §1
The Formula I compound was serially diluted in 100% DMSO. The kinase reaction was incubated for 1 h at room temperature, and the reaction was terminated by the addition of PBS. IC50 values were subsequently determined using sigmoidal dose-response curve fit (variable slope).
as §2

Sequence of p110 alpha (P42336 whole entry, canonical isoform): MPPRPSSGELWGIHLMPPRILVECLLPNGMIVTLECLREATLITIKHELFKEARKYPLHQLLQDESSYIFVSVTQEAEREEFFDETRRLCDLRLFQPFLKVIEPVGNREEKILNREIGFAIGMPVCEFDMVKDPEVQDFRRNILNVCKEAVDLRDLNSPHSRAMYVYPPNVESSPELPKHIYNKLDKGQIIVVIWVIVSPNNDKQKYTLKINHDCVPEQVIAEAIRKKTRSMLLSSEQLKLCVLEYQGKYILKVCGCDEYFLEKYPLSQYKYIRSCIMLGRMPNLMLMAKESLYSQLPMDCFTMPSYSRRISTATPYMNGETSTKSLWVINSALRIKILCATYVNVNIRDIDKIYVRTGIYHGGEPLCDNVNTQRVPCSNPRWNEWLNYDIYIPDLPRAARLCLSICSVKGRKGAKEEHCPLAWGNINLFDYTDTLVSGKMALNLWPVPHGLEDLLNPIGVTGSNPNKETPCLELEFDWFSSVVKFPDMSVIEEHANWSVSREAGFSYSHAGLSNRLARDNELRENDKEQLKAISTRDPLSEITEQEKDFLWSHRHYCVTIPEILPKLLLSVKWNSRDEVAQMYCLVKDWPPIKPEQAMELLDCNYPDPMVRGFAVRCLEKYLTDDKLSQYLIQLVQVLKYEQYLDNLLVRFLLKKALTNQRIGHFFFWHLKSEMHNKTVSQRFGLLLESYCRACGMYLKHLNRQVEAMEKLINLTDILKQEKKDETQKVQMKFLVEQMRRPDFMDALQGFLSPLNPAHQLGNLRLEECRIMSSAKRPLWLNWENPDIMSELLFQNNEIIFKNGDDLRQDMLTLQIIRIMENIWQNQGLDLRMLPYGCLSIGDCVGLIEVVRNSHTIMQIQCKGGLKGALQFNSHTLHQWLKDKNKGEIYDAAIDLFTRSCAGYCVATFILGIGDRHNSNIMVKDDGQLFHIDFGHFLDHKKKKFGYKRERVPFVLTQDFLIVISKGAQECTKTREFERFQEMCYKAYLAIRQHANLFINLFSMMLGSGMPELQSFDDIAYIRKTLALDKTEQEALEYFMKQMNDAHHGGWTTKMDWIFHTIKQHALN
Sequence of p110 alpha (P27986 whole entry partner, canonical isoform): as the sequence (P27986 whole entry partner, canonical isoform) above

Row | SMILES | IC50 p110 alpha/IC50 p110 delta [1] | IC50 [2]
1 | Cc1nc(-c2cn3c(n2)-c2cc(-c4cnn(C)c4C4CC(N(C)C)CCO4)c(F)cc2OCC3)n(C(C)C)n1 (centres unmarked) [Example 354, 2-[4-[9-fluoro-2-(2-isopropyl-5-methyl-1,2,4-triazol-3-yl)-5,6-dihydroimidazo[1,2-d][1,4]benzoxazepin-10-yl]-2-methyl-pyrazol-3-yl]-N,N-dimethyl-tetrahydropyran-4-amine] | 14.5 | 0.66 nM
2 | COc1cc2c(cc1[C@H](C)N1CCN(C(C)(C)C)CC1)-c1nc(-c3nc(C)nn3C(C)C)cn1CCO2 [Example 371, 10-[(1S)-1-(4-tert-butylpiperazin-1-yl)ethyl]-2-(2-isopropyl-5-methyl-1,2,4-triazol-3-yl)-9-methoxy-5,6-dihydroimidazo[1,2-d][1,4]benzoxazepine] | 11.7 | 5.3 nM
3 | Cc1nc(-c2cn3c(n2)-c2ccc(-c4cnn(C)c4C4CN(C(C)C)CCO4)cc2OCC3)n(C(C)C)n1 (centres unmarked) [Example 372, 2-(2-isopropyl-5-methyl-1,2,4-triazol-3-yl)-9-[5-(4-isopropylmorpholin-2-yl)-1-methyl-pyrazol-4-yl]-5,6-dihydroimidazo[1,2-d][1,4]benzoxazepine] | 18 | 0.992 nM
4 | Cc1nc(-c2cn3c(n2)-c2ccc(-c4ccnn4C4CCN(C(C)(C)C)CC4)cc2OCC3)n(C(C)C)n1 [Example 269, 9-[2-(1-tert-butyl-4-piperidyl)pyrazol-3-yl]-2-(2-isopropyl-5-methyl-1,2,4-triazol-3-yl)-5,6-dihydroimidazo[1,2-d][1,4]benzoxazepine] | 9.8 | 4.57 nM
5 | Cc1nc(-c2cn3c(n2)-c2ccc(OC4(c5ccccc5)CN(C(C)C)C4)cc2OCC3)n(C(C)C)n1 [Example 275, 2-(2-isopropyl-5-methyl-1,2,4-triazol-3-yl)-9-(1-isopropyl-3-phenyl-azetidin-3-yl)oxy-5,6-dihydroimidazo[1,2-d][1,4]benzoxazepine] | 17 | 6.2 nM
6 | Cc1nc(-c2cn3c(n2)-c2cc(C(C)N4CCN(C5COC5)CC4)c(C)cc2OCC3)n(C(C)C)n1 (centres unmarked) [Example 345, 2-(2-isopropyl-5-methyl-1,2,4-triazol-3-yl)-9-methyl-10-[1-[4-(oxetan-3-yl)piperazin-1-yl]ethyl]-5,6-dihydroimidazo[1,2-d][1,4]benzoxazepine] | 14.3 | 8.82 nM
7 | Cc1nc(-c2cn3c(n2)-c2ccc(-c4cn(C)nc4C4CCCN(C(C)C)C4)cc2OCC3)n(C(C)C)n1 (centres unmarked) [Example 280, 2-(2-isopropyl-5-methyl-1,2,4-triazol-3-yl)-9-[3-(1-isopropyl-3-piperidyl)-1-methyl-pyrazol-4-yl]-5,6-dihydroimidazo[1,2-d][1,4]benzoxazepine] | 32.7 | 0.878 nM
8 | Cc1nc(-c2cn3c(n2)-c2ccc(N4CCCC4C4CCCCN4C)cc2OCC3)n(C(C)C)n1 (centres unmarked) [Example 323, 2-(2-isopropyl-5-methyl-1,2,4-triazol-3-yl)-9-[2-(1-methyl-2-piperidyl)pyrrolidin-1-yl]-5,6-dihydroimidazo[1,2-d][1,4]benzoxazepine] | 11.7 | 1.94 nM
9 | Cc1nc(-c2cn3c(n2)-c2ccc(OC4(CC5CC5)CN(C(C)C)C4)cc2OCC3)n(C(C)C)n1 [Example 283, 9-[3-(cyclopropylmethyl)-1-isopropyl-azetidin-3-yl]oxy-2-(2-isopropyl-5-methyl-1,2,4-triazol-3-yl)-5,6-dihydroimidazo[1,2-d][1,4]benzoxazepine] | 75.5 | 0.936 nM
10 | Cc1nc(-c2cn3c(n2)-c2ccc(N4CCCC4C4CCN(S(C)(=O)=O)CC4)cc2OCC3)n(C(C)C)n1 (centres unmarked) [Example 306, 2-(2-isopropyl-5-methyl-1,2,4-triazol-3-yl)-9-[2-(1-methylsulfonyl-4-piperidyl)pyrrolidin-1-yl]-5,6-dihydroimidazo[1,2-d][1,4]benzoxazepine] | 12.4 | 1.18 nM
11 | CCN1CCN(C(C)c2cc3c(cc2F)OCCn2cc(-c4nc(C)nn4C(C)C)nc2-3)CC1 (centres unmarked) [Example 374, 10-[1-(4-ethylpiperazin-1-yl)ethyl]-9-fluoro-2-(2-isopropyl-5-methyl-1,2,4-triazol-3-yl)-5,6-dihydroimidazo[1,2-d][1,4]benzoxazepine] | 17.9 | 4.85 nM
12 | Cc1nc(-c2cn3c(n2)-c2cc([C@H](C)N4CCN(C(C)C)CC4)c(C)cc2OCC3)n(C(C)C)n1 [Example 332, (S)-2-(1-isopropyl-3-methyl-1H-1,2,4-triazol-5-yl)-10-(1-(4-isopropylpiperazin-1-yl)ethyl)-9-methyl-5,6-dihydrobenzo[f]imidazo[1,2-d][1,4]oxazepine] | 13 | 0.678 nM
13 | Cc1nc(-c2cn3c(n2)-c2ccc(-c4ccnn4C4CCCN(C5(C)COC5)C4)cc2OCC3)n(C(C)C)n1 (centres unmarked) [Example 285, 2-(2-isopropyl-5-methyl-1,2,4-triazol-3-yl)-9-[2-[1-(3-methyloxetan-3-yl)-3-piperidyl]pyrazol-3-yl]-5,6-dihydroimidazo[1,2-d][1,4]benzoxazepine] | 31.9 | 1.39 nM
14 | Cc1nc(-c2cn3c(n2)-c2cc([C@@H](C)N4CCN(C(C)(C)CO)CC4)ncc2OCC3)n(C(C)C)n1 [Example 365, (R)-2-(4-(1-(2-(1-isopropyl-3-methyl-1H-1,2,4-triazol-5-yl)-5,6-dihydroimidazo[1,2-d]pyrido[4,3-f][1,4]oxazepin-10-yl)ethyl)piperazin-1-yl)-2-methylpropan-1-ol] | 83.2 | 2.63 nM
15 | Cc1cc2c(cc1-c1ccnn1C1CCN(C)CC1)OCCn1cc(-c3ncnn3C(C)C)nc1-2 [Example 264, 2-(1-isopropyl-1H-1,2,4-triazol-5-yl)-10-methyl-9-(1-(1-methylpiperidin-4-yl)-1H-pyrazol-5-yl)-5,6-dihydrobenzo[f]imidazo[1,2-d][1,4]oxazepine] | 10 | 17.3 nM

The remaining compounds from weak to strong by IC50 [2], led by results:

Row | IC50 p110 alpha/IC50 p110 delta [1] | IC50 [2] | SMILES
16 | 40.4 | 3.09 nM | Cc1nc(-c2cn3c(n2)-c2ccc(-n4ccnc4C4CCCN(C(C)C)C4)cc2OCC3)n(C(C)C)n1 (centres unmarked) [Example 369, 2-(2-isopropyl-5-methyl-1,2,4-triazol-3-yl)-9-[2-(1-isopropyl-3-piperidyl)imidazol-1-yl]-5,6-dihydroimidazo[1,2-d][1,4]benzoxazepine]
17 | 12.8 | 2.56 nM | Cc1nc(-c2cn3c(n2)-c2ccc(OC4CC(C)CN(C(C)C)C4)cc2OCC3)n(C(C)C)n1 (centres unmarked) [Example 260, 2-(1-isopropyl-3-methyl-1H-1,2,4-triazol-5-yl)-9-(1-isopropyl-5-methylpiperidin-3-yloxy)-5,6-dihydrobenzo[f]imidazo[1,2-d][1,4]oxazepine]
18 | 49.9 | 0.986 nM | Cc1nc(-c2cn3c(n2)-c2ccc(N4CCCC4C4CCN(CC(C)(C)O)CC4)cc2OCC3)n(C(C)C)n1 (centres unmarked) [Example 272, 1-[4-[1-[2-(2-isopropyl-5-methyl-1,2,4-triazol-3-yl)-5,6-dihydroimidazo[1,2-d][1,4]benzoxazepin-9-yl]pyrrolidin-2-yl]-1-piperidyl]-2-methyl-propan-2-ol]
19 | 13.1 | 0.852 nM | Cc1nc(-c2cn3c(n2)-c2ccc(-c4cnn(C)c4C4CCCCN4CC(C)(C)O)cc2OCC3)n(C(C)C)n1 (centres unmarked) [Example 289, 1-[2-[4-[2-(2-isopropyl-5-methyl-1,2,4-triazol-3-yl)-5,6-dihydroimidazo[1,2-d][1,4]benzoxazepin-9-yl]-2-methyl-pyrazol-3-yl]-1-piperidyl]-2-methyl-propan-2-ol]
20 | 18.3 | 0.707 nM | CC(C)n1ncnc1-c1cn2c(n1)-c1cnc(N3CCCC3CN3CCCC3)cc1OCC2 (centres unmarked) [Example 105, 2-(1-isopropyl-1H-1,2,4-triazol-5-yl)-9-(2-(pyrrolidin-1-ylmethyl)pyrrolidin-1-yl)-5,6-dihydroimidazo[1,2-d]pyrido[3,4-f][1,4]oxazepine]
21 | 14.4 | 0.638 nM | Cc1nc(-c2cn3c(n2)-c2ccc(OC4(C)CCN(C(C)C)C4)cc2OCC3)n(C(C)C)n1 (centres unmarked) [Example 261, 2-(1-isopropyl-3-methyl-1H-1,2,4-triazol-5-yl)-9-(1-isopropyl-3-methylpyrrolidin-3-yloxy)-5,6-dihydrobenzo[f]imidazo[1,2-d][1,4]oxazepine]
22 | 21.3 | 0.16 nM | Cc1nc(-c2cn3c(n2)-c2ccc(N4CCC4[C@@H]4CCCN(C(C)C)C4)cc2OCC3)n(C(C)C)n1 (stereo partly drawn) [Example 342, 2-(1-isopropyl-3-methyl-1H-1,2,4-triazol-5-yl)-9-(2-((R)-1-isopropylpiperidin-3-yl)azetidin-1-yl)-5,6-dihydrobenzo[f]imidazo[1,2-d][1,4]oxazepine]
